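Assay format: 96-well plates, 48-hour exposure. TGI: concentration producing complete growth inhibition.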
Key:
Assay in all cases: growth of human tumour cells (NCI), 48 h
LOX IMVI melanoma = test system: LOX IMVI melanoma
UO-31 renal = test system: UO-31 renal
OVCAR-3 ovarian = test system: OVCAR-3 ovarian
UACC-257 melanoma = test system: UACC-257 melanoma
CCRF-CEM leukemia = test system: CCRF-CEM leukemia
COLO 205 colon = test system: COLO 205 colon
HCT-116 colon = test system: HCT-116 colon
A549 NSCLC = test system: A549 NSCLC
SF-295 CNS = test system: SF-295 CNS
EKVX NSCLC = test system: EKVX NSCLC
OVCAR-5 ovarian = test system: OVCAR-5 ovarian
BT-549 breast = test system: BT-549 breast
SF-268 CNS = test system: SF-268 CNS
RXF 393 renal = test system: RXF 393 renal
HT29 colon = test system: HT29 colon
MOLT-4 leukemia = test system: MOLT-4 leukemia
HOP-92 NSCLC = test system: HOP-92 NSCLC
TK-10 renal = test system: TK-10 renal
ACHN renal = test system: ACHN renal
SNB-75 CNS = test system: SNB-75 CNS
OVCAR-8 ovarian = test system: OVCAR-8 ovarian
NCI-H460 lung = test system: NCI-H460 lung
UACC-62 melanoma = test system: UACC-62 melanoma
PC-3 prostate = test system: PC-3 prostate
U251 CNS = test system: U251 CNS
KM12 colon = test system: KM12 colon
MDA-MB-231 breast = test system: MDA-MB-231 breast
SW-620 colon = test system: SW-620 colon
NCI-H226 lung = test system: NCI-H226 lung
OVCAR-4 ovarian = test system: OVCAR-4 ovarian
786-0 renal = test system: 786-0 renal
HOP-62 NSCLC = test system: HOP-62 NSCLC
SK-MEL-5 melanoma = test system: SK-MEL-5 melanoma
NCI-H23 lung = test system: NCI-H23 lung
DU-145 prostate = test system: DU-145 prostate
SNB-19 CNS = test system: SNB-19 CNS
K-562 leukemia = test system: K-562 leukemia
SK-OV-3 ovarian = test system: SK-OV-3 ovarian
M14 melanoma = test system: M14 melanoma
IGROV1 ovarian = test system: IGROV1 ovarian
MDA-N = test system: MDA-N
HCT-15 colon = test system: HCT-15 colon
NCI-H522 lung = test system: NCI-H522 lung
SF-539 CNS = test system: SF-539 CNS
SK-MEL-28 melanoma = test system: SK-MEL-28 melanoma
SK-MEL-2 melanoma = test system: SK-MEL-2 melanoma
T-47D breast = test system: T-47D breast
MDA-MB-435 = test system: MDA-MB-435
NCI/ADR-RES ovarian = test system: NCI/ADR-RES ovarian
SR leukemia = test system: SR leukemia
HS 578T breast = test system: HS 578T breast
RPMI-8226 leukemia = test system: RPMI-8226 leukemia
HL-60(TB) leukemia = test system: HL-60(TB) leukemia
HCC-2998 colon = test system: HCC-2998 colon
MALME-3M melanoma = test system: MALME-3M melanoma
CAKI-1 renal = test system: CAKI-1 renal
MCF7 breast = test system: MCF7 breast
SN12C renal = test system: SN12C renal
A498 renal = test system: A498 renal

N=C1/C(=C/c2ccccc2)C(=O)N=C2SC=NN12
TGI (LOX IMVI melanoma): > 100 µM
TGI (UO-31 renal): > 100 µM
TGI (OVCAR-3 ovarian): > 100 µM
TGI (UACC-257 melanoma): > 100 µM
TGI (CCRF-CEM leukemia): > 100 µM
TGI (COLO 205 colon): > 100 µM
TGI (HCT-116 colon): > 100 µM
TGI (A549 NSCLC): > 100 µM
TGI (SF-295 CNS): > 100 µM
TGI (EKVX NSCLC): > 100 µM
TGI (OVCAR-5 ovarian): > 100 µM
TGI (BT-549 breast): > 100 µM
TGI (SF-268 CNS): > 100 µM
TGI (RXF 393 renal): > 100 µM
TGI (HT29 colon): > 100 µM
TGI (MOLT-4 leukemia): > 100 µM
TGI (HOP-92 NSCLC): > 100 µM
TGI (TK-10 renal): > 100 µM
TGI (ACHN renal): > 100 µM
TGI (SNB-75 CNS): > 100 µM
TGI (OVCAR-8 ovarian): > 100 µM
TGI (NCI-H460 lung): > 100 µM
TGI (UACC-62 melanoma): > 100 µM
TGI (PC-3 prostate): > 100 µM
TGI (U251 CNS): > 100 µM
TGI (KM12 colon): > 100 µM
TGI (MDA-MB-231 breast): > 100 µM
TGI (SW-620 colon): > 100 µM
TGI (NCI-H226 lung): > 100 µM
TGI (OVCAR-4 ovarian): > 100 µM
TGI (786-0 renal): > 100 µM
TGI (HOP-62 NSCLC): > 100 µM
TGI (SK-MEL-5 melanoma): > 100 µM
TGI (NCI-H23 lung): > 100 µM
TGI (DU-145 prostate): > 100 µM
TGI (SNB-19 CNS): > 100 µM
TGI (K-562 leukemia): > 100 µM
TGI (SK-OV-3 ovarian): > 100 µM
TGI (M14 melanoma): > 100 µM
TGI (IGROV1 ovarian): > 100 µM
TGI (MDA-N): > 100 µM
TGI (HCT-15 colon): > 100 µM
TGI (NCI-H522 lung): > 100 µM
TGI (SF-539 CNS): 88.5 µM
TGI (SK-MEL-28 melanoma): > 100 µM
TGI (SK-MEL-2 melanoma): > 100 µM
TGI (T-47D breast): > 100 µM
TGI (MDA-MB-435): > 100 µM
TGI (NCI/ADR-RES ovarian): > 100 µM
TGI (SR leukemia): > 100 µM
TGI (HS 578T breast): > 100 µM
TGI (RPMI-8226 leukemia): > 100 µM
TGI (HL-60(TB) leukemia): > 100 µM
TGI (HCC-2998 colon): > 100 µM
TGI (MALME-3M melanoma): > 100 µM
TGI (CAKI-1 renal): > 100 µM
TGI (MCF7 breast): > 100 µM
TGI (SN12C renal): > 100 µM

O=C1C=Cc2c1csc2Br
TGI (LOX IMVI melanoma): 60.2 µM
TGI (UO-31 renal): 72.5 µM
TGI (OVCAR-3 ovarian): > 100 µM
TGI (UACC-257 melanoma): > 100 µM
TGI (CCRF-CEM leukemia): 45.8 µM
TGI (COLO 205 colon): > 100 µM
TGI (HCT-116 colon): > 100 µM
TGI (A549 NSCLC): > 100 µM
TGI (SF-295 CNS): > 100 µM
TGI (EKVX NSCLC): > 100 µM
TGI (OVCAR-5 ovarian): > 100 µM
TGI (BT-549 breast): > 100 µM
TGI (SF-268 CNS): > 100 µM
TGI (RXF 393 renal): > 100 µM
TGI (HT29 colon): > 100 µM
TGI (MOLT-4 leukemia): 54.7 µM
TGI (TK-10 renal): > 100 µM
TGI (ACHN renal): 86.5 µM
TGI (SNB-75 CNS): > 100 µM
TGI (OVCAR-8 ovarian): > 100 µM
TGI (NCI-H460 lung): > 100 µM
TGI (UACC-62 melanoma): > 100 µM
TGI (PC-3 prostate): > 100 µM
TGI (U251 CNS): > 100 µM
TGI (KM12 colon): > 100 µM
TGI (MDA-MB-231 breast): > 100 µM
TGI (SW-620 colon): 48.8 µM
TGI (OVCAR-4 ovarian): > 100 µM
TGI (786-0 renal): > 100 µM
TGI (HOP-62 NSCLC): > 100 µM
TGI (SK-MEL-5 melanoma): > 100 µM
TGI (NCI-H23 lung): > 100 µM
TGI (DU-145 prostate): > 100 µM
TGI (SNB-19 CNS): > 100 µM
TGI (K-562 leukemia): 97.7 µM
TGI (SK-OV-3 ovarian): > 100 µM
TGI (M14 melanoma): 47.2 µM
TGI (IGROV1 ovarian): > 100 µM
TGI (MDA-N): > 100 µM
TGI (HCT-15 colon): > 100 µM
TGI (NCI-H522 lung): 38.4 µM
TGI (SK-MEL-28 melanoma): > 100 µM
TGI (SK-MEL-2 melanoma): > 100 µM
TGI (T-47D breast): > 100 µM
TGI (MDA-MB-435): > 100 µM
TGI (NCI/ADR-RES ovarian): > 100 µM
TGI (SR leukemia): 22.7 µM
TGI (HS 578T breast): > 100 µM
TGI (MALME-3M melanoma): > 100 µM
TGI (CAKI-1 renal): > 100 µM
TGI (MCF7 breast): 95.9 µM
TGI (SN12C renal): > 100 µM

O=CNNC(=O)CSc1nc2ccc(I)cc2c(=O)n1Cc1ccccc1
TGI (LOX IMVI melanoma): 69.1 µM
TGI (UO-31 renal): 3.93 µM
TGI (OVCAR-3 ovarian): 50.2 µM
TGI (UACC-257 melanoma): 68.3 µM
TGI (CCRF-CEM leukemia): > 100 µM
TGI (COLO 205 colon): 36.4 µM
TGI (HCT-116 colon): 49.5 µM
TGI (A549 NSCLC): > 100 µM
TGI (SF-295 CNS): > 100 µM
TGI (EKVX NSCLC): 69.7 µM
TGI (OVCAR-5 ovarian): > 100 µM
TGI (BT-549 breast): 99 µM
TGI (SF-268 CNS): > 100 µM
TGI (RXF 393 renal): 81.4 µM
TGI (HT29 colon): > 100 µM
TGI (MOLT-4 leukemia): > 100 µM
TGI (HOP-92 NSCLC): 63.3 µM
TGI (TK-10 renal): > 100 µM
TGI (ACHN renal): > 100 µM
TGI (SNB-75 CNS): > 100 µM
TGI (OVCAR-8 ovarian): > 100 µM
TGI (NCI-H460 lung): 50.9 µM
TGI (UACC-62 melanoma): 47.6 µM
TGI (PC-3 prostate): > 100 µM
TGI (U251 CNS): > 100 µM
TGI (KM12 colon): > 100 µM
TGI (MDA-MB-231 breast): 81.8 µM
TGI (SW-620 colon): > 100 µM
TGI (NCI-H226 lung): > 100 µM
TGI (OVCAR-4 ovarian): > 100 µM
TGI (786-0 renal): > 100 µM
TGI (HOP-62 NSCLC): > 100 µM
TGI (SK-MEL-5 melanoma): 38.2 µM
TGI (NCI-H23 lung): 89.6 µM
TGI (DU-145 prostate): > 100 µM
TGI (SNB-19 CNS): > 100 µM
TGI (K-562 leukemia): > 100 µM
TGI (SK-OV-3 ovarian): > 100 µM
TGI (M14 melanoma): > 100 µM
TGI (IGROV1 ovarian): > 100 µM
TGI (MDA-N): > 100 µM
TGI (HCT-15 colon): > 100 µM
TGI (NCI-H522 lung): 57.4 µM
TGI (SF-539 CNS): > 100 µM
TGI (SK-MEL-28 melanoma): > 100 µM
TGI (SK-MEL-2 melanoma): 44.4 µM
TGI (T-47D breast): > 100 µM
TGI (MDA-MB-435): > 100 µM
TGI (NCI/ADR-RES ovarian): > 100 µM
TGI (A498 renal): > 100 µM
TGI (SR leukemia): > 100 µM
TGI (HS 578T breast): 87.8 µM
TGI (RPMI-8226 leukemia): 23.8 µM
TGI (HL-60(TB) leukemia): 89.7 µM
TGI (HCC-2998 colon): 81.6 µM
TGI (CAKI-1 renal): 57.5 µM
TGI (MCF7 breast): > 100 µM
TGI (SN12C renal): 79.8 µM

Source: PubChem BioAssay (NCI)
